Measured values taken from paper PMC4965013, “Open Source Drug Discovery with the Malaria Box Compound Collection for Neglected Diseases and Beyond” (PLoS Pathogens, 2016).

Columns and labels:
[1] = tested on: P. falciparum 3D7 trophozoites; assay: Metabolomic fingerprint profiling LC-MS; type: cell-based, Plasmodium falciparum; set-up: UDP-D-glucose / ADP-D-glucose: unit not given here; conditions: for Acetyllysine / N-acetyl-L-ornithine / N-carbamoyl-L-aspartate / NADPH / dAMP / dCMP / dTDP / dTMP / dTTP / dihydroorotate / orotate / DLH / DLS/SDL/SID / PD / PEE / PVNF / 3-phosphoglycerate / ADP-D-glucose / ATP / CDP / D-sedoheptulose-1/7-phosphate / FAD / GMP / NAD+ / NADP+ / Octoluse Bisphosphate / Pyroglutamic acid / UDP-D-glucose / UDP-D-glucuronate / UDP-N-acetyl-glucosamine / UDP / UMP / UTP / a-ketoglutarate / citrate/isocitrate / cytidine / dATP / dGMP/AMP / fumarate / glucose-1/6-phosphate / glycerate / guanine / guanosine / hypoxanthine / indole / inosine / nicotinate / ornithine / phosphoenolpyruvate / pyruvate / ribose-phosphate / sarcosine/alanine / sn-glycerol-3-phosphate / succinate/methylmalonic acid / uridine / xanthosine: S2 Table Metabolomics; for Acetyllysine: metabolite Acetyllysine; for N-acetyl-L-ornithine: metabolite N-acetyl-L-ornithine; for N-carbamoyl-L-aspartate: metabolite N-carbamoyl-L-aspartate; for NADPH: metabolite NADPH; for dAMP: metabolite dAMP; for dCMP: metabolite dCMP; for dTDP: metabolite dTDP; for dTMP: metabolite dTMP; for dTTP: metabolite dTTP; for dihydroorotate: metabolite dihydroorotate; for orotate: metabolite orotate; for DLH: peptide DLH; for DLS/SDL/SID: peptide DLS/SDL/SID; for PD: peptide PD; for PEE: peptide PEE; for PVNF: peptide PVNF; for 3-phosphoglycerate: metabolite 3-phosphoglycerate; for ADP-D-glucose: metabolite ADP-D-glucose; for ATP: metabolite ATP; for CDP: metabolite CDP; for CDP / D-sedoheptulose-1/7-phosphate / GMP / Octoluse Bisphosphate / UDP / UMP / UTP / citrate/isocitrate / dGMP/AMP / fumarate / glucose-1/6-phosphate / glycerate / guanine / guanosine / inosine / pyruvate / sarcosine/alanine / succinate/methylmalonic acid / uridine / xanthosine: change in metabolite level after compound treatment; for D-sedoheptulose-1/7-phosphate: metabolite D-sedoheptulose-1/7-phosphate; for FAD: metabolite FAD; for GMP: metabolite GMP; for NAD+: metabolite NAD+; for NADP+: metabolite NADP+; for Octoluse Bisphosphate: metabolite Octoluse Bisphosphate; for Pyroglutamic acid: metabolite Pyroglutamic acid; for UDP-D-glucose: metabolite UDP-D-glucose; for UDP-D-glucuronate: metabolite UDP-D-glucuronate; for UDP-N-acetyl-glucosamine: metabolite UDP-N-acetyl-glucosamine; for UDP: metabolite UDP; for UMP: metabolite UMP; for UTP: metabolite UTP; for a-ketoglutarate: metabolite a-ketoglutarate; for citrate/isocitrate: metabolite citrate/isocitrate; for cytidine: metabolite cytidine; for dATP: metabolite dATP; for dGMP/AMP: metabolite dGMP/AMP; for fumarate: metabolite fumarate; for glucose-1/6-phosphate: metabolite glucose-1/6-phosphate; for glycerate: metabolite glycerate; for guanine: metabolite guanine; for guanosine: metabolite guanosine; for hypoxanthine: metabolite hypoxanthine; for indole: metabolite indole; for inosine: metabolite inosine; for 2_3-Diphosphoglyceric acid / 4-phosphopantothenate / 6-phospho-D-gluconate / FMN / IMP / Pyrophosphate / Sedoheptoluse bisphosphate / cyclic-AMP / glutathione disulfide / lactate / myo-inositol: metabolite level change after treatment; for nicotinate: metabolite nicotinate; for ornithine: metabolite ornithine; for phosphoenolpyruvate: metabolite phosphoenolpyruvate; for pyruvate: metabolite pyruvate; for ribose-phosphate: metabolite ribose-phosphate; for sarcosine/alanine: metabolite sarcosine/alanine; for sn-glycerol-3-phosphate: metabolite sn-glycerol-3-phosphate; for succinate/methylmalonic acid: metabolite succinate/methylmalonic acid; for uridine: metabolite uridine; for xanthosine: metabolite xanthosine
P. falciparum = assay: EC50 listed in S2 Table Metabolomics (used to set the concentration tested); type: cell-based; conditions: Plasmodium falciparum; EC50 used for Factor_XEC50 in metabolomics; read-out: EC50_nM

COc1ccc(-c2cc3c(SCC(=O)Nc4cc(C(F)(F)F)ccc4Cl)nccn3n2)cc1 [MMV396679]
Acetyllysine [1]: -0.1115 | N-acetyl-L-ornithine [1]: -0.02651 | N-carbamoyl-L-aspartate [1]: 3.992 | NADPH [1]: 0.255 | dAMP [1]: 0.01076 | dCMP [1]: -0.01731 | dTDP [1]: -0.9721 | dTMP [1]: -0.9985 | dTTP [1]: -1.02 | dihydroorotate [1]: 4.797 | orotate [1]: 0.864 | DLH [1]: -0.2125 | DLS/SDL/SID [1]: -0.04913 | PD [1]: -0.04215 | PEE [1]: -0.3501 | PVNF [1]: -0.2936 | 3-phosphoglycerate [1]: -0.0577 | ADP-D-glucose [1]: -0.06603 | ATP [1]: 0.1822 | CDP [1]: -0.644 | D-sedoheptulose-1/7-phosphate [1]: 0.2024 | FAD [1]: 0.03763 | GMP [1]: 0.3849 | NAD+ [1]: -0.01439 | NADP+ [1]: -0.06317 | Octoluse Bisphosphate [1]: -0.02018 | Pyroglutamic acid [1]: 0.2933 | UDP-D-glucose [1]: -0.1121 | UDP-D-glucuronate [1]: -0.02141 | UDP-N-acetyl-glucosamine [1]: -0.3213 | UDP [1]: -1.37 | UMP [1]: -0.7971 | UTP [1]: -1.261 | a-ketoglutarate [1]: 0.1314 | citrate/isocitrate [1]: 0.05797 | cytidine [1]: 0.1643 | dATP [1]: 0.3792 | dGMP/AMP [1]: -0.06069 | fumarate [1]: -0.2305 | glucose-1/6-phosphate [1]: 0.5016 | glycerate [1]: 0.4143 | guanine [1]: 0.4991 | guanosine [1]: 0.9003 | hypoxanthine [1]: 0.3227 | indole [1]: 0.2561 | inosine [1]: 0.1928 | 2_3-Diphosphoglyceric acid [1]: 0.1312 | 4-phosphopantothenate [1]: -0.2367 | 6-phospho-D-gluconate [1]: 0.186 | FMN [1]: -0.2039 | IMP [1]: -0.06535 | Pyrophosphate [1]: 0.04157 | Sedoheptoluse bisphosphate [1]: -0.03524 | cyclic-AMP [1]: -0.06553 | glutathione disulfide [1]: 0.06998 | lactate [1]: 0.2306 | myo-inositol [1]: 0.2632 | nicotinate [1]: 0.2615 | ornithine [1]: 0.183 | phosphoenolpyruvate [1]: -0.02867 | pyruvate [1]: -0.158 | ribose-phosphate [1]: -0.4444 | sarcosine/alanine [1]: 0.1483 | sn-glycerol-3-phosphate [1]: -0.1937 | succinate/methylmalonic acid [1]: -0.8703 | uridine [1]: -0.4231 | xanthosine [1]: 0.3074 | EC50 (P. falciparum): 89.9 nM

Cc1ccc(-c2cc3c(SCC(=O)Nc4cc(C(F)(F)F)ccc4Cl)nccn3n2)cc1 [MMV396680]
Acetyllysine [1]: -0.4906 | N-acetyl-L-ornithine [1]: -0.1465 | N-carbamoyl-L-aspartate [1]: 2.456 | NADPH [1]: 0.3651 | dAMP [1]: -0.4552 | dCMP [1]: -0.05341 | dTDP [1]: -1.136 | dTMP [1]: -1.083 | dTTP [1]: -1.158 | dihydroorotate [1]: 3.543 | orotate [1]: -0.9159 | DLH [1]: -0.3949 | DLS/SDL/SID [1]: -0.337 | PD [1]: -0.05706 | PEE [1]: -0.2567 | PVNF [1]: -0.5778 | 3-phosphoglycerate [1]: -0.2595 | ADP-D-glucose [1]: -0.2217 | ATP [1]: -0.3128 | CDP [1]: -0.9741 | D-sedoheptulose-1/7-phosphate [1]: -0.1867 | FAD [1]: 0.01886 | GMP [1]: 0.2283 | NAD+ [1]: 0.1566 | NADP+ [1]: -0.1345 | Octoluse Bisphosphate [1]: -0.3002 | Pyroglutamic acid [1]: -0.01833 | UDP-D-glucose [1]: -0.08257 | UDP-D-glucuronate [1]: -0.2581 | UDP-N-acetyl-glucosamine [1]: -0.1134 | UDP [1]: -1.014 | UMP [1]: -0.7737 | UTP [1]: -1.292 | a-ketoglutarate [1]: -0.4564 | citrate/isocitrate [1]: -0.8044 | cytidine [1]: 0.4371 | dATP [1]: 0.3628 | dGMP/AMP [1]: -1.368 | fumarate [1]: -0.8765 | glucose-1/6-phosphate [1]: 0.09137 | glycerate [1]: -0.2491 | guanine [1]: 0.04089 | guanosine [1]: -0.01605 | hypoxanthine [1]: -0.1601 | indole [1]: -0.003888 | inosine [1]: -0.03937 | 2_3-Diphosphoglyceric acid [1]: -0.2285 | 4-phosphopantothenate [1]: -0.2363 | 6-phospho-D-gluconate [1]: 0 | FMN [1]: -0.1967 | IMP [1]: -0.1897 | Pyrophosphate [1]: 0.5607 | Sedoheptoluse bisphosphate [1]: -0.2656 | cyclic-AMP [1]: -0.07723 | glutathione disulfide [1]: -0.04075 | lactate [1]: -0.4254 | myo-inositol [1]: -0.7104 | nicotinate [1]: -0.4764 | ornithine [1]: -0.2162 | phosphoenolpyruvate [1]: -0.2321 | pyruvate [1]: -0.2774 | ribose-phosphate [1]: -0.04672 | sarcosine/alanine [1]: -0.2257 | sn-glycerol-3-phosphate [1]: -0.3003 | succinate/methylmalonic acid [1]: 0.02717 | uridine [1]: -0.7719 | xanthosine [1]: -0.1274 | EC50 (P. falciparum): 92.8 nM
